Values after ≈ are worked out from the molar mass of the structure shown. Bounds are passed on as bounds.

This note sets out measurements from patent publication US20240270762A1, “PENICILLIN-BINDING PROTEIN INHIBITORS” (priority 2021, published 2024).

Experiment [1] addresses T1, PBP2 from Neisseria gonorrhoeae (FA19) (Neisseria gonorrhoeae, UniProt P08149).
T1 construct: made in house
In words: Bocillin-FL fluorescence polarization competition binding, N. gonorrhoeae PBP2. The settings on record: fluorescence polarization competition binding assay using Bocillin-FL, read-out: N. gonorrhoeae PBP2 Potency. The text has this: To determine the ability of boronic acid-based test PBP inhibitors to bind Penicillin Binding Proteins (PBPs), Bocillin-FL (fluorescently-labeled penicillin V; ThermoFisher Scientific) was used in a fluorescence polarization (FP) competition binding assay to assess inhibitor binding to PBP3 from Escherichia coli (K-12), PBP3 from Pseudomonas aeruginosa (PAO1), PBP1a and PBP3 from Acinetobacter baumannii (ATCC 19606), and PBP2 from Neisseria gonorrhoeae (FA19). PBPs were cloned and purified as described previously (E. coli PBP3, King, D. T, et al., ACS Infectious Diseases 2015, 1, 175-184; P. aeruginosa PBP3, Han et. al., PNAS 2010, 107 (51), 22002-22007; A. baumannii PBPs, Penwell et. al., Antimicrob. Agents Chemother. 2015, 59 (3), 1680-1689; N. gonorrhoeae PBP2, Singh et. al., J. Biol. Chem. 2019, 294 (38), 14020-14032). To establish assay conditions for competition binding, enzyme titration/saturation binding experiments were initially performed. Bocillin-FL was prepared at 0.2 μM in a buffer comprised of 50 mM Hepes (pH 8.0), 300 mM NaCl and 10% (v/v) glycerol for reactions with E. coli, P. aeruginosa and N. gonorrhoeae PBPs, and 25 mM Tris (pH 8.0), 200 mM NaCl, 10% (v/v) glycerol and 0.005% (v/v) Tween 20 for reactions with A. baumannii PBPs. Saturation binding was performed by mixing 40 μl of PBP solutions ranging in concentrations from 0-24 μM with 40 μl of the 0.2 μM Bocillin-FL solution, in individual wells of a black 384-well microplate. FP was measured immediately upon mixing (Excitation, 490 nm; Emission, 520 nm; g-factor, 0.96), using a Cytation3 (BioTek) microplate reader and measured continuously for up to 120 minutes. […] The competition binding assay (80 μl final volume) was validated using beta-lactams and PBPs at final concentrations of: 1.5 μM for E. coli PBP3; 0.75 μM for P. aeruginosa PBP3; 1 μM for A. baumannii PBP1a; 0.2 μM for A. baumannii PBP3; and 0.25 μM for N. gonorrhoeae PBP2. Bocillin-FL was at 0.1 μM (0.05 μM with A. baumannii PBP1a) and beta-lactam concentrations ranged from 0-1,000 μM. E. coli PBP3 was incubated with increasing concentrations of ampicillin in a black 384-well microplate (Corning) for 30 minutes. P. aeruginosa PBP3 was incubated for 15 minutes with aztreonam, whereas A. baumannii PBP1a and PBP3 were incubated for 15 minutes with meropenem, and then Bocillin-FL was added followed immediately by the FP measurement for up to 60 minutes. […] The beta-lactam potency was reported as the concentration of beta-lactam required to reduce the amount of PBP bound-Bocillin-FL by 50% (EC50). […] Binding assays for boronic acid PBP inhibitors were performed in an identical fashion for the respective PBPs.

The next experiment deals with E. coli D22. In words: microbe, parasite or virus in culture. The experiment is classed as cell-based. The settings on record: Escherichia coli, D22, read-out: MIC E. coli D22.
Experiment [2] concerns P. aeruginosa (ΔmexAB-oprM). In words: Broth microdilution MIC in CAMHB. The experiment is classed as cell-based. The conditions noted are these: Pseudomonas aeruginosa; read-out: MIC P. aeruginosa ΔmexAB-oprM.
A further experiment concerns N. gonorrhoeae MS11. In words: Liquid broth MIC in Fastidious broth. The conditions noted are these: Neisseria gonorrhoeae, MS11, read-out: Minimum Inhibitory Concentration (MIC), N. gonorrhoeae MS11.
For another experiment, the system named is N. gonorrhoeae WHO G. As to the kind of experiment: Liquid broth MIC in Fastidious broth. The settings on record: Neisseria gonorrhoeae, read-out: Minimum Inhibitory Concentration (MIC), N. gonorrhoeae WHO G.
The test system of the next experiment is N. gonorrhoeae WHO M. In words: Liquid broth MIC in Fastidious broth. The conditions noted are these: Neisseria gonorrhoeae, read-out: Minimum Inhibitory Concentration (MIC), N. gonorrhoeae WHO M.

T1 sequence (P08149 whole entry): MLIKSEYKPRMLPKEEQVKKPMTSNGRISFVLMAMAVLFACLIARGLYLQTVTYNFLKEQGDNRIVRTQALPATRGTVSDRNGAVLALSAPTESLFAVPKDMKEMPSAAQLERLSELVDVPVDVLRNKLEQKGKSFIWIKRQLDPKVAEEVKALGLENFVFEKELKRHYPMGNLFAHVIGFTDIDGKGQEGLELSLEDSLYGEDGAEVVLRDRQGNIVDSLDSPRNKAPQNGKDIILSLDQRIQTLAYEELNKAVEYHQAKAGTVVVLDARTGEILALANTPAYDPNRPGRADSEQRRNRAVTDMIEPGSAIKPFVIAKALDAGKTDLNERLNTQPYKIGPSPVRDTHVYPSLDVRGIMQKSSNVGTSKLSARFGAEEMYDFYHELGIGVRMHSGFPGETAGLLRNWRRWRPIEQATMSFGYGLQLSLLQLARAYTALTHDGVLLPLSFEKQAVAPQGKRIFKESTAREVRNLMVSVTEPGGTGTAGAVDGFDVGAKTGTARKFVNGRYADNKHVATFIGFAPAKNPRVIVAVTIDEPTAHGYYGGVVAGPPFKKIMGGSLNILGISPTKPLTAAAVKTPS
Protocol for N. gonorrhoeae MS11: (§1) Additional antibacterial testing of the series was performed in 8 reference strains of N. gonorrhoeae (ATCC 49226, FA1090, MS 11, WHO G, WHO L, WHO M, WHO K, WHO X, WHO Z, WHO Q, CDC-0197). ATCC 49226, FA1090, MS11, WHO G, WHO L, and WHO M produce wild type or wild-type like PBP2. WHO K, WHO X, WHO Z, WHO Q, and CDC-0197 produce mosaic PBP2. Liquid broth-based assays were used for antibacterial testing of PBP inhibitors in Neisseria gonorrhoeae. Briefly, cryo-preserved bacterial cultures of clinical strains were streaked for isolation on Chocolate Agar (72 g/L (2×) GC Agar Base (BD #228950) and 2% (2×) Hemoglobin was autoclaved at 121° C. for 20 minutes to sterilize. Once cooled to ˜50° C. the 2×GC Agar Base and 2× Hemoglobin solutions are combined and 1% IsoVitaleX Enrichment (BD #211876) was added to the solution). Strains were incubated at 36° C. and 5% CO2 to allow growth of colonies, 24 hours before inoculum preparation. 2-fold serial dilutions of test compounds were conducted in a 96 well plate with a final volume of 75 μL per well at 2-fold the final desired concentration in Fastidious broth (Remel #R07664). For preparation of assay inoculum, a direct suspension was prepared by aseptically swabbing 10-15 colonies from agar plates into culture tubes containing 2 mL of fresh sterile saline. After the dilution plates were set up, direct suspensions were then diluted in a cuvette containing sterile saline and the optical density was measured at 600 nm. Inocula were diluted such that 75 μL of this culture in Fastidious broth results in a starting bacterial concentration of 5×10^5 CFU/mL when added to the dilution plates. The plates were incubated for ˜24 hours at 36° C. and 5% CO2.
Protocol for N. gonorrhoeae WHO G: as §1

As to `CS(=O)(=O)N1CCN(C(=O)N[C@@H](C(=O)N[C@H]2Cc3cccc(C(=O)O)c3OB2O)c2ccc(P(=O)(O)O)c(F)c2)C1=O` (single isomer, unassigned) [Example 15], the EC50 in experiment [1] is below 10 µM. Moreover, the MIC in the experiment with E. coli D22 was 2 to 4 µg/mL (≈ 3.18 to 6.37 µM); in experiment [2] it was 32 to 64 µg/mL (≈ 50.9 to 102 µM); in the experiment on N. gonorrhoeae MS11, below 1 µg/mL; in the experiment with N. gonorrhoeae WHO G it was below 1 µg/mL; in the experiment on N. gonorrhoeae WHO M, below 1 µg/mL.
For `CS(=O)(=O)N1CCN(C(=O)N[C@@H](C(=O)N[C@H]2Cc3cccc(C(=O)O)c3OB2O)c2cc(F)c(P(=O)(O)O)c(F)c2)C1=O` (single isomer, unassigned) [Example 18], the EC50 in experiment [1] was below 10 µM. Further, the MIC in the experiment on E. coli D22 is 8 to 16 µg/mL (≈ 12.4 to 24.8 µM); in experiment [2], 32 to 64 µg/mL (≈ 49.5 to 99 µM); with N. gonorrhoeae MS11, below 1 µg/mL; in the experiment with N. gonorrhoeae WHO G, below 1 µg/mL; in the experiment with N. gonorrhoeae WHO M it was below 1 µg/mL.
Turning to `CS(=O)(=O)N1CCN(C(=O)N[C@@H](C(=O)N[C@H]2Cc3ccc(F)c(C(=O)O)c3OB2O)c2ccc(P(=O)(O)O)c(F)c2)C1=O` (single isomer, unassigned) [Example 19], the EC50 in experiment [1] is below 10 µM. Also, the MIC is 8 to 16 µg/mL (≈ 12.4 to 24.8 µM) in the experiment with E. coli D22; 32 to 64 µg/mL (≈ 49.5 to 99 µM) in experiment [2]; below 1 µg/mL in the experiment with N. gonorrhoeae MS11; below 1 µg/mL with N. gonorrhoeae WHO G; below 1 µg/mL with N. gonorrhoeae WHO M.
`CCN1CCN(C(=O)N[C@@H](C(=O)N[C@H]2Cc3cccc(C(=O)O)c3OB2O)c2ccc(P(C)(=O)O)cc2)C(=O)C1=O` (single isomer, unassigned) [Example 47]: in experiment [1], the EC50 was below 10 µM. Besides, the MIC is 2 to 4 µg/mL (≈ 3.41 to 6.82 µM) with E. coli D22; 8 to 16 µg/mL (≈ 13.6 to 27.3 µM) in experiment [2]; below 1 µg/mL with N. gonorrhoeae MS11; below 1 µg/mL in the experiment on N. gonorrhoeae WHO G; below 1 µg/mL in the experiment with N. gonorrhoeae WHO M.
In the case of `N[C@@H](C(=O)N[C@H]1Cc2cccc(C(=O)O)c2OB1O)c1ccc(P(=O)(O)O)cc1` (single isomer, unassigned) [Example 171], the EC50 in experiment [1] was 10 to 50 µM. Besides, the MIC was above 128 µg/mL with E. coli D22; above 128 µg/mL in experiment [2]; above 64 µg/mL in the experiment on N. gonorrhoeae MS11; above 64 µg/mL in the experiment on N. gonorrhoeae WHO G; above 64 µg/mL in the experiment with N. gonorrhoeae WHO M.
For the compound `O=C(O)c1cccc2c1OB(O)[C@@H](NC(=O)[C@@H](NC(=O)c1ccn[nH]c1=O)c1ccc(P(=O)(O)O)cc1)C2` (single isomer, unassigned) [Example 177], the EC50 in experiment [1] is below 10 µM. Besides, the MIC is 32 to 64 µg/mL (≈ 59 to 118 µM) in the experiment with E. coli D22; above 128 µg/mL in experiment [2]; 1 to 2 µg/mL (≈ 1.84 to 3.69 µM) in the experiment on N. gonorrhoeae MS11; below 1 µg/mL with N. gonorrhoeae WHO G; below 1 µg/mL in the experiment on N. gonorrhoeae WHO M.
On to `O=C(O)c1cccc2c1OB(O)[C@@H](NC(=O)[C@H](NC(=O)c1ccn[nH]c1=O)c1ccc(P(=O)(O)O)cc1)C2` (single isomer, unassigned) [Example 178], for which the EC50 in experiment [1] was below 10 µM. For the same compound, the MIC in the experiment with E. coli D22 is 2 to 4 µg/mL (≈ 3.69 to 7.38 µM); in experiment [2], 8 to 16 µg/mL (≈ 14.8 to 29.5 µM); in the experiment on N. gonorrhoeae MS11, below 1 µg/mL; in the experiment on N. gonorrhoeae WHO G, below 1 µg/mL; with N. gonorrhoeae WHO M, below 1 µg/mL.
As for `Cn1cccc(C(=O)N[C@@H](C(=O)N[C@H]2Cc3cccc(C(=O)O)c3OB2O)c2ccc(P(=O)(O)O)cc2)c1=O` (single isomer, unassigned) [Example 182], in experiment [1], the EC50 was below 10 µM. Further, the MIC is 8 to 16 µg/mL (≈ 14.4 to 28.8 µM) in the experiment with E. coli D22; 8 to 16 µg/mL (≈ 14.4 to 28.8 µM) in experiment [2]; 1 to 2 µg/mL (≈ 1.8 to 3.6 µM) in the experiment with N. gonorrhoeae MS11; below 1 µg/mL in the experiment on N. gonorrhoeae WHO G; below 1 µg/mL in the experiment with N. gonorrhoeae WHO M.
As for `O=C(N[C@H](C(=O)N[C@H]1Cc2cccc(C(=O)O)c2OB1O)c1ccc(P(=O)(O)O)cc1)c1ccc(C(F)(F)F)cn1` (single isomer, unassigned) [Example 192], in experiment [1], the EC50 was below 10 µM. The MIC was 8 to 16 µg/mL (≈ 13.5 to 27 µM) with E. coli D22; 32 to 64 µg/mL (≈ 53.9 to 108 µM) in experiment [2]; 1 to 2 µg/mL (≈ 1.69 to 3.37 µM) with N. gonorrhoeae MS11; 1 to 2 µg/mL (≈ 1.69 to 3.37 µM) with N. gonorrhoeae WHO G; below 1 µg/mL in the experiment with N. gonorrhoeae WHO M.
